Laboratory results published in the supplement of paper PMC10307832.

How the values were obtained:
Assay in all cases: relative viability (nuclei count vs DMSO), 5 days (fraction); higher = more cells survive
RO-3306 + Phenformin = compound: C1=CC2=C(C=CC(=C2)C=C3C(=O)NC(=NCC4=CC=CS4)S3)N=C1 [RO-3306] + N=C(N)NC(=N)NCCc1ccccc1 [Phenformin] (partner 250 µM)
Method in brief: (§1)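 Values are medians from duplicate plates. Each reflects relative viability, defined as the nuclei count of treated wells over that of vehicle wells. Lung cancer cell lines in 1536-well plates were pin-tool dosed one day after seeding with one drug alone or with a fixed anchor-drug dose plus five library-drug doses (not always all listed) in √10 steps, then fixed, stained and imaged at 4× after 5 days.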

[1] = compound: O=S(=O)(c1ccccc1)N(CC(F)(F)F)c1ccc(C(O)(C(F)(F)F)C(F)(F)F)cc1 + O=C(c1cc(Cc2n[nH]c(=O)c3ccccc23)ccc1F)N1CCN(C(=O)C2CC2)CC1 [Olaparib] (partner 8 µM)
Method in brief: as §1

[2] = compound: O=S(=O)(c1ccccc1)N(CC(F)(F)F)c1ccc(C(O)(C(F)(F)F)C(F)(F)F)cc1 + C[C@]1(O)C[C@@H](c2nc(-c3ccc4ccc(-c5ccccc5)nc4c3)c3c(N)nccn32)C1 [Linsitinib] (partner 1 µM)
Method in brief: as §1

[3] = compound: O=S(=O)(c1ccccc1)N(CC(F)(F)F)c1ccc(C(O)(C(F)(F)F)C(F)(F)F)cc1 + CC(=O)Nc1cccc(-n2c(=O)n(C3CC3)c(=O)c3c(Nc4ccc(I)cc4F)n(C)c(=O)c(C)c32)c1 [Trametinib] (partner 0.02 µM)
Method in brief: as §1

RO-3306 + Linsitinib = compound: C1=CC2=C(C=CC(=C2)C=C3C(=O)NC(=NCC4=CC=CS4)S3)N=C1 [RO-3306] + C[C@]1(O)C[C@@H](c2nc(-c3ccc4ccc(-c5ccccc5)nc4c3)c3c(N)nccn32)C1 [Linsitinib] (partner 1 µM)
Method in brief: as §1

Cell Line | relative viability (RO-3306 + Phenformin; first compound 0.01 µM) | relative viability (RO-3306 + Phenformin; first compound 0.03162 µM) | relative viability (RO-3306 + Phenformin; first compound 0.1 µM) | relative viability (RO-3306 + Phenformin; first compound 0.3162 µM) | relative viability (RO-3306 + Phenformin; first compound 1 µM) | relative viability ([1]; first compound 0.8 µM) | relative viability ([1]; first compound 2.53 µM) | relative viability ([1]; first compound 8 µM) | relative viability ([2]; first compound 0.8 µM) | relative viability ([2]; first compound 2.53 µM) | relative viability ([2]; first compound 8 µM) | relative viability ([3]; first compound 0.8 µM) | relative viability ([3]; first compound 2.53 µM) | relative viability ([3]; first compound 8 µM) | relative viability (RO-3306 + Linsitinib; first compound 0.01 µM) | relative viability (RO-3306 + Linsitinib; first compound 0.03162 µM) | relative viability (RO-3306 + Linsitinib; first compound 0.1 µM) | relative viability (RO-3306 + Linsitinib; first compound 0.3162 µM) | relative viability (RO-3306 + Linsitinib; first compound 1 µM)
NCI-H23 | 0.734 | 0.762 | 0.737 | 0.745 | 0.668 | 0.31 | 0.23 | 0.302 | 0.627 | 0.571 | 0.605 | 0.392 | 0.379 | 0.343 | 0.774 | 0.443 | 0.633 | 0.514 | 0.569
NCI-H322M | 0.768 | 0.661 | 0.724 | 0.777 | 0.791 | 0.81 | 0.734 | 0.857 | 1.09 | 0.915 | 0.999 | 0.497 | 0.506 | 0.557 | 0.978 | 0.709 | 0.923 | 1.02 | 1.03
NCI-H358 | 0.363 | 0.265 | 0.282 | 0.289 | 0.239 |  | 0.563 | 0.517 | 0.598 | 0.521 | 0.578 |  | 0.118 | 0.118 | 0.827 | 0.642 | 0.656 | 0.892 | 0.517
NCI-H441 | 0.689 | 0.474 | 0.783 | 0.864 | 0.788 | 0.657 | 0.469 | 0.654 | 0.559 | 0.504 | 0.49 | 0.387 | 0.348 | 0.423 | 0.53 | 0.385 | 0.479 | 0.554 | 0.405
NCI-H460 | 0.635 | 0.365 | 0.496 | 0.555 | 0.544 | 0.452 | 0.432 | 0.407 | 1.55 | 0.829 | 0.695 | 0.198 | 0.109 | 0.147 | 1.14 |  | 0.901 | 1.3 | 0.889
NCI-H520 | 0.562 | 0.422 | 0.425 | 0.491 | 0.588 | 0.333 | 0.346 | 0.32 | 1.09 | 1.23 | 1.25 | 0.861 | 0.603 | 0.701 | 1.05 | 0.872 | 0.82 | 1.2 | 0.824
NCI-H596 | 0.77 | 0.63 | 0.799 | 0.758 | 0.966 | 0.634 | 0.681 | 0.651 | 1.17 | 0.838 | 0.968 | 0.746 | 0.794 | 0.724 | 0.954 | 0.903 | 1.15 | 1.04 | 1.04
NCI-H647 | 0.682 | 0.304 | 0.449 | 0.582 | 0.392 | 0.667 | 0.418 | 0.6 | 1.31 | 1.07 | 1.16 | 0.587 | 0.379 | 0.352 | 1.43 | 1.07 | 1.21 | 1.29 | 1.07
NCI-H650 | 0.408 | 0.411 | 0.445 | 0.467 | 0.457 | 0.405 | 0.387 | 0.359 | 0.739 | 0.761 | 0.938 | 1.1 | 0.983 | 0.782 | 0.598 | 0.672 | 0.721 | 0.859 | 0.748
NCI-H661 | 0.302 | 0.281 | 0.268 | 0.247 | 0.282 | 0.774 | 0.779 | 0.768 | 0.688 | 0.515 | 0.561 | 0.677 | 0.574 | 0.533 | 0.569 | 0.458 | 0.581 | 0.586 | 0.728
NCI-H727 | 0.535 |  | 0.502 | 0.458 | 0.576 | 0.657 | 0.706 | 0.704 | 0.279 | 0.376 | 0.212 | 0.358 | 0.368 | 0.375 | 0.464 | 0.221 | 0.28 | 0.277 | 0.35
NCI-H838 | 0.756 | 0.442 | 0.521 | 0.653 | 0.538 | 0.937 | 0.736 | 0.86 | 1.13 | 1.04 | 0.97 | 0.604 | 0.474 | 0.596 | 1.11 | 0.742 | 1.05 | 1.15 | 0.92
NCI-H1355 | 0.429 |  | 0.516 | 0.422 | 0.404 | 0.824 | 0.737 | 0.719 | 0.762 | 0.65 | 0.598 | 0.456 | 0.427 | 0.382 | 1.04 | 0.802 | 0.763 | 0.929 | 0.799
NCI-H1395 | 0.377 | 0.479 | 0.421 | 0.46 | 0.459 | 0.409 | 0.458 | 0.467 | 1.23 | 1.05 | 1.21 | 1.13 | 1 | 0.965 | 1.1 | 0.954 | 1.06 | 1.02 | 1.04
NCI-H1437 | 0.317 | 0.261 | 0.308 | 0.297 | 0.316 | 0.598 | 0.591 | 0.597 | 1.07 | 0.859 | 0.893 | 0.538 | 0.36 | 0.432 | 1.15 | 0.673 | 0.945 | 1.03 | 1.1
NCI-H1651 | 0.363 | 0.254 | 0.341 | 0.338 | 0.251 | 0.178 | 0.206 | 0.176 | 1.04 | 0.901 | 1.02 | 0.853 | 0.867 | 0.739 | 0.956 | 0.927 | 0.922 | 1.18 | 0.977
NCI-H1666 | 0.561 | 0.55 | 0.515 | 0.54 | 0.552 | 0.757 | 0.683 | 0.679 | 0.788 | 0.703 | 0.78 | 0.902 | 0.845 | 0.704 | 0.829 | 0.693 | 0.684 | 0.823 | 0.834
